{"source": "patent EP0049683A2", "about": "“Imidazo-rifamycines, process for their preparation, pharmaceutical preparations containing them and their use” (CIBA-GEIGY AG, priority 1980, dated 1982)", "key": {"[1]": {"assay_type": "physicochemical", "method": "Eine unter Stickstoff gerührte Suspension von 15,50 g 4-Dimethylamino-imidazolo[4,5-c]rifamycin SV (1) in 150 ml Wasser wird tropfenweise mit 20,0 ml einer 1-N-wässrigen Natriumhydroxid-Lösung (0,987 Aequivalent) versetzt. Die resultierende gelbgefärbte Lösung wird filtriert und das Filtrat der Gefriertrocknung unterworfen. […] Für C40H51N4O11Na (MG 786,85) berechnet 2,92% Na; gefunden 2,87% Na.\nEine gerührte Suspension von 8,75 g 4-(4-Isobutylpiperazinyl)-imidazolo[4,5-c]rifamycin SV (4) in 165 ml Wasser wird mit 10,0 ml 1-normaler wässriger Salzsäure (0,985 Aequivalent) versetzt. Das Gemisch wird filtriert, und das Filtrat der Gefriertrocknung unterworfen. Das erhaltene 4-(4-Isobutylpiperazinyl)-imidazolo[4,5-c]rifamycin SV-Hydrochlorid bildet ein wasserlösliches, gelbes amorphes Pulver. Für C46H63N5O11 · HC1 (898,49) berechnet: 3,95% Cl, gefunden: 4,08% Cl."}, "[2]": {"system": "Mycobacterium tuberculosis", "test": "Agar dilution MIC in DST agar (Ericsson and Sherris)", "assay_type": "cell-based", "conditions": "in vitro; for MIC: Mycobacterium tuberculosis, read-out: MIC Myc. tub."}, "[3]": {"system": "Staphylococcus aureus 2999", "test": "Agar dilution MIC in DST agar (Ericsson and Sherris)", "assay_type": "cell-based", "conditions": "for MIC: Staphylococcus aureus, 2999, in vitro, read-out: MIC Staph. 2999", "summary_of_the_method": "(§1)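 Compounds are incorporated into agar at graded levels and the test strain is applied; the lowest concentration still suppressing its growth is recorded as the MIC in µg/ml.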"}, "[4]": {"system": "Salmonella Typhimurium 277", "test": "Agar dilution MIC in DST agar (Ericsson and Sherris)", "assay_type": "cell-based", "conditions": "in vitro; for MIC: Salmonella enterica, TYPHIMURIUM, read-out: MIC Salm. 277", "summary_of_the_method": "as §1"}, "Proteus morganii 2359": {"system": "Proteus morganii 2359", "test": "Agar dilution MIC in DST agar (Ericsson and Sherris)", "assay_type": "cell-based", "conditions": "for MIC: Morganella morganii, 2359, in vitro, read-out: MIC Prot. 2359", "summary_of_the_method": "as §1"}, "[5]": {"system": "Pseudomonas aeruginosa K 799/61", "test": "Agar dilution MIC in DST agar (Ericsson and Sherris)", "assay_type": "cell-based", "conditions": "for MIC: Pseudomonas aeruginosa, K799/61, read-out: MIC Pseu. 799", "summary_of_the_method": "as §1"}, "Escherichia coli 2018": {"system": "Escherichia coli 2018", "test": "Agar dilution MIC in DST agar (Ericsson and Sherris)", "assay_type": "cell-based", "conditions": "for MIC: Escherichia coli, 2018, in vitro, read-out: MIC Esch. 2018", "summary_of_the_method": "as §1"}, "Escherichia coli 205": {"system": "Escherichia coli 205", "test": "Agar dilution MIC in DST agar (Ericsson and Sherris)", "assay_type": "cell-based", "conditions": "for MIC: Escherichia coli, 205, in vitro, read-out: MIC Esch. 205", "summary_of_the_method": "as §1"}, "Proteus morganii 1518": {"system": "Proteus morganii 1518", "test": "Agar dilution MIC in DST agar (Ericsson and Sherris)", "assay_type": "cell-based", "conditions": "for MIC: Morganella morganii, 1518, in vitro, read-out: MIC Prot. 1518", "summary_of_the_method": "as §1"}, "[6]": {"system": "Staphylococcus aureus 10B", "test": "Agar dilution MIC in DST agar (Ericsson and Sherris)", "assay_type": "cell-based", "conditions": "in vitro; for MIC: Staphylococcus aureus, 10B, read-out: MIC Staph. 10B", "summary_of_the_method": "as §1"}, "Staphylococcus aureus": {"system": "Staphylococcus aureus", "test": "In vitro antibacterial activity against gram-positive cocci", "assay_type": "cell-based", "conditions": "at (at or below) the lowest limit of the tested concentration range, 0,005 y/ml", "source_text": "(§2) Die neuen erfindungsgemässen Verbindungen der Formel I zeichnen sich vor allem durch ihre wertvollen pharmakologischen Eigenschaften aus: so besitzen sie gemäss den Resultaten in vitro antibiotische, insbesondere antibakterielle Eigenschaften, wie z.B. einerseits gegen grammpositive Kokken, wie Staphylococcus aureus, (im getesteten Konzentrationsbereich 0,005 bis 128 y/ml),andererseits gegen grammnegative Stäbchenbakterien, wie Enterobacteriaceae, z.B. Escherichia coli, Pseudomonas aeruginosa und Proteus morganii (im getesteten Konzentrationsbereich von 1 bis 64 y/ml), sowie gegen Mycobacterium tuberculosis (im getesteten Konzentrationsbereich von 0,48 bis 1,9 y/ml). […] (Für die Testresultate siehe auch Tabelle -1.)\n(§3) Auch die neuen erfindungsgemässen Verbindungen der Formeln V und VI zeichnen sich durch analoge wertvolle pharmakologische Eigenschaften aus, d.h. sie besitzen gemäss den Resultaten in vitro antibiotische, insbesondere antibakterielle Eigenschaften, die sich bezüglich des Anwendungsbereichs sowie der getesteten effektiven Konzentrationen den Verbindungen der Formel I praktisch gleichen. […] (Für die Testresultate siehe auch Tabelle 2.)"}, "[7]": {"system": "Enterobacteriaceae, z.B. Escherichia coli, Pseudomonas aeruginosa und Proteus morganii", "test": "In vitro antibacterial activity against gram-negative rods", "assay_type": "cell-based", "conditions": "within the stated concentration range, 1 bis 64 y/ml", "source_text": "as §2, §3"}, "[8]": {"assay_type": "physicochemical", "method": "Eine Lösung von 0,5 g 3-Dimethylaminomethylenamino-Rifamycin S in 5 ml Methanol wird mit 2 ml einer 10 % (G/V) wässerigen Natriumbicarbonatlösung und 5 ml einer 10 % (G/V) Lösung von K4[Fe(CN)6] Kaliumferrocyanid) in Wasser versetzt, die Lösung 3 Minuten intensiv gerührt und mit je 20 ml Wasser und Chloroform verdünnt. Die Chloroformphase wird abgetrennt und die wässerige Phase noch zweimal mit Chloroform extrahiert. Die vereinigten Chloroformextrakte werden getrocknet und eingedampft, wodurch 3-Dimethylaminomethylenamino-Rifamycin SV als gelbes Pulver resultiert.", "remark": "listed apart in the source"}}, "data": [{"molecule": "4-Dimethylamino-imidazolo[4,5-c]rifamycin SV-Natriumsalz", "values": [{"measurement": "Löslichkeit in Wasser", "setting": "[1]", "value": "in Wasser klar lösliches"}]}, {"molecule": "COC1C=COC2(C)Oc3c(C)c(O)c4c(O)c(c5nc(N6CCOCC6)[nH]c5c4c3C2=O)NC(=O)C(C)=CC=CC(C)C(O)C(C)C(O)C(C)C(OC(C)=O)C1C", "note": "(centres unmarked) [Verbindung 2, 4-Morpholino-imidazolo[4,5-c]rifamycin SV]", "values": [{"measurement": "MIC", "setting": "[2]", "value": 1.9, "unit": "µg/mL"}, {"measurement": "MIC", "setting": "[3]", "value": 0.005, "unit": "µg/mL"}, {"measurement": "MIC", "setting": "[4]", "value": 32, "unit": "µg/mL"}, {"measurement": "MIC", "setting": "Proteus morganii 2359", "value": 4, "unit": "µg/mL"}, {"measurement": "MIC", "setting": "[5]", "value": 8, "unit": "µg/mL"}, {"measurement": "MIC", "setting": "Escherichia coli 2018", "value": 16, "unit": "µg/mL"}, {"measurement": "MIC", "setting": "Escherichia coli 205", "value": 16, "unit": "µg/mL"}, {"measurement": "MIC", "setting": "Proteus morganii 1518", "value": 4, "unit": "µg/mL"}, {"measurement": "MIC", "setting": "[6]", "value": 0.01, "unit": "µg/mL"}, {"measurement": "Hemmwirkung auf Staphylococcus aureus", "setting": "Staphylococcus aureus", "value": "deutliche Hemmwirkung"}, {"measurement": "Hemmung der Enterobacterien", "setting": "[7]", "value": "wirksam hemmen"}]}, {"molecule": "COC1C=COC2(C)Oc3c(C)c(O)c4c(O)c(c5nc(N6CCN(CC(C)C)CC6)[nH]c5c4c3C2=O)NC(=O)C(C)=CC=CC(C)C(O)C(C)C(O)C(C)C(OC(C)=O)C1C", "note": "(centres unmarked) [Verbindung 4, 4-(4-Isobutylpiperazinyl)-imidazolo[4,5-c]rifamycin SV]", "values": [{"measurement": "MIC", "setting": "[2]", "value": 0.97, "unit": "µg/mL"}, {"measurement": "MIC", "setting": "[3]", "value": 0.005, "unit": "µg/mL"}, {"measurement": "MIC", "setting": "[4]", "value": 8, "unit": "µg/mL"}, {"measurement": "MIC", "setting": "Proteus morganii 2359", "value": 4, "unit": "µg/mL"}, {"measurement": "MIC", "setting": "[5]", "value": 8, "unit": "µg/mL"}, {"measurement": "MIC", "setting": "Escherichia coli 2018", "value": 4, "unit": "µg/mL"}, {"measurement": "MIC", "setting": "Escherichia coli 205", "value": 4, "unit": "µg/mL"}, {"measurement": "MIC", "setting": "Proteus morganii 1518", "value": 4, "unit": "µg/mL"}, {"measurement": "MIC", "setting": "[6]", "value": 0.005, "unit": "µg/mL"}, {"measurement": "Hemmwirkung auf Staphylococcus aureus", "setting": "Staphylococcus aureus", "value": "deutliche Hemmwirkung"}, {"measurement": "Hemmung der Enterobacterien", "setting": "[7]", "value": "wirksam hemmen"}]}, {"molecule": "COC1C=COC2(C)Oc3c(C)c(O)c4c(O)c(c5nc(N(C)C)[nH]c5c4c3C2=O)NC(=O)C(C)=CC=CC(C)C(O)C(C)C(O)C(C)C(OC(C)=O)C1C", "note": "(centres unmarked) [Verbindung 1, 4-Dimethylamino-imidazolo[4,5-c]rifamycin SV]", "values": [{"measurement": "MIC", "setting": "[2]", "value": 0.97, "unit": "µg/mL"}, {"measurement": "MIC", "setting": "[3]", "value": 0.005, "unit": "µg/mL"}, {"measurement": "MIC", "setting": "[4]", "value": 16, "unit": "µg/mL"}, {"measurement": "MIC", "setting": "Proteus morganii 2359", "value": 8, "unit": "µg/mL"}, {"measurement": "MIC", "setting": "[5]", "value": 2, "unit": "µg/mL"}, {"measurement": "MIC", "setting": "Escherichia coli 2018", "value": 4, "unit": "µg/mL"}, {"measurement": "MIC", "setting": "Escherichia coli 205", "value": 8, "unit": "µg/mL"}, {"measurement": "MIC", "setting": "Proteus morganii 1518", "value": 4, "unit": "µg/mL"}, {"measurement": "MIC", "setting": "[6]", "value": 0.005, "unit": "µg/mL"}, {"measurement": "Hemmwirkung auf Staphylococcus aureus", "setting": "Staphylococcus aureus", "value": "deutliche Hemmwirkung"}, {"measurement": "Hemmung der Enterobacterien", "setting": "[7]", "value": "wirksam hemmen"}]}, {"molecule": "3-Dimethylaminomethylenamino-Rifamycin SV [Beispiel 78A]", "values": [{"measurement": "Stabilität beim Stehen in einer Lösung", "setting": "[8]", "value": "sehr schnell wieder zum Chinon durch Luftsauerstoffoxidation umgewandelt"}]}, {"molecule": "4-Pyrrolidinyl-imidazolo[4,5-c]rifamycin SV [Verbindung 19]", "values": [{"measurement": "MIC Myc. tub.", "setting": "[2]", "value": 0.48, "unit": "µg/mL"}, {"measurement": "MIC Staph. 2999", "setting": "[3]; in vitro", "value": 0.005, "unit": "µg/mL"}, {"measurement": "MIC Salm. 277", "setting": "[4]", "value": 8, "unit": "µg/mL"}, {"measurement": "MIC Prot. 2359", "setting": "Proteus morganii 2359; in vitro", "value": 4, "unit": "µg/mL"}, {"measurement": "MIC Pseu. 799", "setting": "[5]; in vitro, agar dilution, DST agar", "value": 8, "unit": "µg/mL"}, {"measurement": "MIC Esch. 2018", "setting": "Escherichia coli 2018; in vitro", "value": 4, "unit": "µg/mL"}, {"measurement": "MIC Esch. 205", "setting": "Escherichia coli 205; in vitro", "value": 2, "unit": "µg/mL"}, {"measurement": "MIC Prot. 1518", "setting": "Proteus morganii 1518; in vitro", "value": 4, "unit": "µg/mL"}, {"measurement": "MIC Staph. 10B", "setting": "[6]", "value": 0.005, "unit": "µg/mL"}, {"measurement": "Hemmwirkung auf Staphylococcus aureus", "setting": "Staphylococcus aureus", "value": "deutliche Hemmwirkung"}, {"measurement": "Hemmung der Enterobacterien", "setting": "[7]", "value": "wirksam hemmen"}]}, {"molecule": "COC1C=COC2(C)Oc3c(C)c(O)c4c(O)c(c5[nH]c(N6CCN(CC(C)C)CC6)nc5c4c3C2=O)NC(=O)C(C)=CC=CC(C)C(O)C(C)C(O)C(C)C(OC(C)=O)C1C.Cl", "note": "(centres unmarked) [4-(4-Isobutylpiperazinyl)-imidazolo[4,5-c]rifamycin SV-Hydrochlorid]", "values": [{"measurement": "Löslichkeit in Wasser", "setting": "[1]", "value": "wasserlösliches"}]}, {"molecule": "COC1C=COC2(C)Oc3c(C)c(O)c4c(O)c(c5nc(N6CCN(C)CC6)[nH]c5c4c3C2=O)NC(=O)C(C)=CC=CC(C)C(O)C(C)C(O)C(C)C(OC(C)=O)C1C", "note": "(centres unmarked) [Verbindung 3, 4-(4-Methylpiperazinyl)-imidazolo[4,5-c]rifamycin SV]", "values": [{"measurement": "MIC", "setting": "[2]", "value": 0.97, "unit": "µg/mL"}, {"measurement": "MIC", "setting": "[3]", "value": 0.01, "unit": "µg/mL"}, {"measurement": "MIC", "setting": "[4]", "value": 32, "unit": "µg/mL"}, {"measurement": "MIC", "setting": "Proteus morganii 2359", "value": 16, "unit": "µg/mL"}, {"measurement": "MIC", "setting": "[5]", "value": 4, "unit": "µg/mL"}, {"measurement": "MIC", "setting": "Escherichia coli 2018", "value": 16, "unit": "µg/mL"}, {"measurement": "MIC", "setting": "Escherichia coli 205", "value": 16, "unit": "µg/mL"}, {"measurement": "MIC", "setting": "Proteus morganii 1518", "value": 16, "unit": "µg/mL"}, {"measurement": "MIC", "setting": "[6]", "value": 0.01, "unit": "µg/mL"}, {"measurement": "Hemmwirkung auf Staphylococcus aureus", "setting": "Staphylococcus aureus", "value": "deutliche Hemmwirkung"}, {"measurement": "Hemmung der Enterobacterien", "setting": "[7]", "value": "wirksam hemmen"}]}, {"molecule": "3-Indolinylmethylenamino-Rifamycin S [Verbindung 82]", "values": [{"measurement": "Hemmwirkung auf Staphylococcus aureus", "setting": "Staphylococcus aureus", "value": "deutliche Hemmwirkung"}, {"measurement": "Hemmung der Enterobacterien", "setting": "[7]", "value": "wirksam hemmen"}]}, {"molecule": "3-(4-Phenylpiperazinyl)methylenamino-Rifamycin S [Verbindung 91]", "values": [{"measurement": "Hemmwirkung auf Staphylococcus aureus", "setting": "Staphylococcus aureus", "value": "deutliche Hemmwirkung"}, {"measurement": "Hemmung der Enterobacterien", "setting": "[7]", "value": "wirksam hemmen"}]}]}
